According to US20240101576A1, “HETEROCYCLIC INHIBITORS OF EGFR AND/OR HER2, FOR USE IN THE TREATMENT OF CANCER” (Scorpion Therapeutics, Inc., priority 2020, published 2024):
pIC50: −log10 of the molar value.

How the values were obtained:
Assay type in all cases: cell-based
[1] = target: T1, EGFR L858R (Ba/F3 cells) (Homo sapiens, UniProt P00533, L858R); assay: Inhibitor activity on EGFR-dependent cell growth (CellTiter-Glo, 72 h), Ba/F3 EGFR L858R; conditions: read-out: BaF3 L858R IC50
T1 construct: expressed in transfected cells; host or cells: Ba/F3 (murine pro-B cells), retroviral transduction, puromycin selection, IL3-independent pool
Source text: (§1) Example A. Inhibitor Activity on EGFR-Dependent Cell Growth
(§2) Cell lines are generated by transducing Ba/F3 cells with retroviruses containing vectors with EGFR WT, EGFR L858R, EGFR exon 19del, EGFR L858R/C797S, EGFR exon 20 NPG Ins D770_N771, EGFR exon 20 ASV Ins V769_D770, EGFR exon 20 SVD Ins D770_N771, or EGFR exon 20 FQEA Ins A763_V764 genes and a puromycin selection marker. Transduced cells are selected with puromycin for 7 days and are then be transferred into culture media without Interleukin 3 (IL3). EGFR WT cells are maintained with supplemental EGF. Surviving cells are confirmed to express EGFR by Western blot and maintained as a pool. The IC50 date were included in Table 6 and Table 7.
(§3) 1.1 Cells are harvested from flask into cell culture medium and the cell number counted.
(§4) 1.2 Cells are diluted with culture medium to the desired density and 40 μL of cell suspension is added into each well of 384-well cell culture plate and the seeding density is 800 (FQEA, exon 19del), 600 (WT, NPG, L858R/C797S), or 400 (ASV, SVD, L858R) cells/well.
(§5) 2 Compound Preparation and Treatment
(§6) 2.1 Test compounds are dissolved to 10 mM in a DMSO stock solution. 45 μL of stock solution is transferred to a 384 polypropylene plate (pp-plate). Perform 3-fold, 10-point dilution via transferring 15 μL compound into 30 μL DMSO using a TECAN (EVO200) liquid handler.
(§7) 2.2 Spin plates at room temperature at 1,000 RPM for 1 minute.
(§8) 2.3 Transfer 120 nL of diluted compound from compound source plate into the cell plate.
(§9) 2.4 After compound treatment for 72 hours, perform CTG detection for compound treatment plates as described in “Detection” section.
(§10) 3.1 Plates are removed from incubators and equilibrated at room temperature for 15 minutes.
(§11) 3.2 Thaw the CellTiter Glo reagents and allow to equilibrate to room temperature before the experiment.
(§12) 3.3 Add 40 μL of CellTiter-Glo reagent into each well (at 1:1 to culture medium). Then place the plates at room temperature for 30 min followed by reading on EnVision.
(§13) 4.1 Inhibition activity is calculated following the formula below:
(§14) % Inhibition=100×(LumHC−LumSample)/(LumHC−LumLC) • where HC is obtained from cells treated with 0.1% DMSO only; and LC is obtained from culture medium only.
(§15) 4.2 2. Calculate the IC50 by fitting the Curve using Xlfit (v5.3.1.3), equation 201.
(§16) Y=Bottom+(Top−Bottom)/(1+10^((Log IC50−X)*HillSlope))

[2] = target: T2, EGFR exon 20 ASV Ins V769_D770 (Ba/F3 cells) (Homo sapiens, UniProt P00533, INS769ASV); assay: Inhibitor activity on EGFR-dependent cell growth (CellTiter-Glo, 72 h), Ba/F3 EGFR exon 20 ASV Ins; conditions: read-out: BaF3 ASV IC50
T2 construct: expressed in transfected cells; host or cells: Ba/F3 (murine pro-B cells), retroviral transduction, puromycin selection, IL3-independent pool
Method in brief: (§17)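 IC50s derive from a sigmoidal dose–response fit of CellTiter-Glo signal. The signal was normalised between […]-treated cells and cell-free medium. Ba/F3 mutant-EGFR cells, seeded at 400–800/well depending on the line, had 72 h of exposure to a 10-point, 3-fold compound series.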

[3] = target: EGFR exon 19del (Ba/F3 cells) (Homo sapiens, UniProt P00533); assay: Inhibitor activity on EGFR-dependent cell growth (CellTiter-Glo, 72 h), Ba/F3 EGFR exon 19del; conditions: Ba/F3 EGFR exon 19del cell growth, read-out: BaF3 Del19 IC50
Chain of EGFR exon 19del (Ba/F3 cells) (P00533 with tags, fused parts or gaps DEL746-750): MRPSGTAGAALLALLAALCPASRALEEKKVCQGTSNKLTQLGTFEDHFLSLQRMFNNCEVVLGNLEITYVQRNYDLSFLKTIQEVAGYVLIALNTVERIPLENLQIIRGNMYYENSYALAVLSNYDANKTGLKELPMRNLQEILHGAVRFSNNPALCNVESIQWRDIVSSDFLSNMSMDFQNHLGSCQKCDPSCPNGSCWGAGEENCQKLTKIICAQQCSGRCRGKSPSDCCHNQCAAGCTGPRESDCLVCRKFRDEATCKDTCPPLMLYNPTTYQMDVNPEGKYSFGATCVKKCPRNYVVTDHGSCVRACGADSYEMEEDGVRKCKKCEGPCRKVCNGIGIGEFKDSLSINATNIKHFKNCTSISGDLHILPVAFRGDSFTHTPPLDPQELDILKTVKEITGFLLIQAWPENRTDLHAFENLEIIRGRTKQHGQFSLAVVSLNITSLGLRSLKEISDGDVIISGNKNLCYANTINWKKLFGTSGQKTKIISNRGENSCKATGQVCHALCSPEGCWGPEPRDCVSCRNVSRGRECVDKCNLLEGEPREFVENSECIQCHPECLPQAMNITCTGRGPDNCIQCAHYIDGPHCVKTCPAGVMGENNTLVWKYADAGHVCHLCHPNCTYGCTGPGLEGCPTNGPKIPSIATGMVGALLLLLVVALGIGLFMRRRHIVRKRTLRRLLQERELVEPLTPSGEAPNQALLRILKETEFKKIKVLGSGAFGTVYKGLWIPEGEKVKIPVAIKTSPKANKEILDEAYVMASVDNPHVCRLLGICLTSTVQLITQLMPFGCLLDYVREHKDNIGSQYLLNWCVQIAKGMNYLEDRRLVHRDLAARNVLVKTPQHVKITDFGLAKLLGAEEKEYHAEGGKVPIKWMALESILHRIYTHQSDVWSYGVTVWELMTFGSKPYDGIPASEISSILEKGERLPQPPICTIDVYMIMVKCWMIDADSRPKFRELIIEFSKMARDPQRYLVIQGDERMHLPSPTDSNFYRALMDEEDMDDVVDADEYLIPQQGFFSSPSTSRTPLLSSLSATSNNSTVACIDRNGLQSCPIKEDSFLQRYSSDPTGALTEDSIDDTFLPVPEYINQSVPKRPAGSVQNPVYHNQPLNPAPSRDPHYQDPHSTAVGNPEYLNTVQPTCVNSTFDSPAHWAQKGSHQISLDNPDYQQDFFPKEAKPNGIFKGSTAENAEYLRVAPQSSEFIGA
Source text: as §1, §2, §3, §4, §5, §6, §7, §8, §9, §10, §11, §12, §13, §14, §15, §16

[4] = target: T3, EGFR WT (Ba/F3 cells) (Homo sapiens, UniProt P00533); assay: Inhibitor activity on EGFR-dependent cell growth (CellTiter-Glo, 72 h), Ba/F3 EGFR WT; conditions: read-out: BaF3 WT IC50
T3 construct: expressed in transfected cells; host or cells: Ba/F3 (murine pro-B cells), retroviral transduction, puromycin selection, maintained with EGF
T3 sequence (P00533 25-1210): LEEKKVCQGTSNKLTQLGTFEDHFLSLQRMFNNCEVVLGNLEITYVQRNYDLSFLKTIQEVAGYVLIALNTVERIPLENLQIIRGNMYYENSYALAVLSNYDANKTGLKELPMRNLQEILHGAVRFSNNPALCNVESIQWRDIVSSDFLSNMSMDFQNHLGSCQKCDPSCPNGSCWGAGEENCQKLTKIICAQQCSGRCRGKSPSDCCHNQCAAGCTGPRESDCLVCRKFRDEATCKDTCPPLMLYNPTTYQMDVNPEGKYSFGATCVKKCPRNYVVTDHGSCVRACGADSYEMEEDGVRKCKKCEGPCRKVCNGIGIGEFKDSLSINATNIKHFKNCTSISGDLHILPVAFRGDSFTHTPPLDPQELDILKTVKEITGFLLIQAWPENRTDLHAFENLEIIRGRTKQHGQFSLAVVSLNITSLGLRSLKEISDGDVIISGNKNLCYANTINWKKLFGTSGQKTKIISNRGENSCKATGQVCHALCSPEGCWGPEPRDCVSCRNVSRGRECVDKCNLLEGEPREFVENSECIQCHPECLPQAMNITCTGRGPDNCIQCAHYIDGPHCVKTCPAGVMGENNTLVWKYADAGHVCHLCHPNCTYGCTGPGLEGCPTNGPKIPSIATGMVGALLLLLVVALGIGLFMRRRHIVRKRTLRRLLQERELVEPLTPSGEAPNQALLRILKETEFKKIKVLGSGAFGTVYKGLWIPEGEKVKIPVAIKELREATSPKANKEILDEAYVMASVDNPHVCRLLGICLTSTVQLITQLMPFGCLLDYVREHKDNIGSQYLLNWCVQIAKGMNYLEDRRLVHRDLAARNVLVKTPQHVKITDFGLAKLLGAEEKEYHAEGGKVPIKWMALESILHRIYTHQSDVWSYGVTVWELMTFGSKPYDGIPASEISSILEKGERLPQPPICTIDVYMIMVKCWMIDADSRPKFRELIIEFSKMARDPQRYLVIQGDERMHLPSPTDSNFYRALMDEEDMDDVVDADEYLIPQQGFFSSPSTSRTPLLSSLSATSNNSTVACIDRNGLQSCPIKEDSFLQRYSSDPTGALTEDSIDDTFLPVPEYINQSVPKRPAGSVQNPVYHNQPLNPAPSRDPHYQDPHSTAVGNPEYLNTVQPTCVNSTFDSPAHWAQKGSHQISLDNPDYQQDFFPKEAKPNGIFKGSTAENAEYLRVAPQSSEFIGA
Method in brief: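 This growth assay used Ba/F3 cells that depend on wild-type EGFR and are kept in EGF without IL3. Compounds were made up as 10 mM DMSO stocks and diluted 3-fold over 10 points. 120 nL went onto 600 cells/well. After 72 hours, 40 μL CellTiter-Glo was added and luminescence read on EnVision after 30 min.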

[5] = target: T4, EGFR exon 20 NPG Ins D770_N771 (Ba/F3 cells) (Homo sapiens, UniProt P00533, INS770NPG); assay: Inhibitor activity on EGFR-dependent cell growth (CellTiter-Glo, 72 h), Ba/F3 EGFR exon 20 NPG Ins; conditions: read-out: BaF3 NPG IC50
T4 construct: expressed in transfected cells; host or cells: Ba/F3 (murine pro-B cells), retroviral transduction, puromycin selection, IL3-independent pool
T4 sequence (P00533 with tags, fused parts or gaps INS770NPG): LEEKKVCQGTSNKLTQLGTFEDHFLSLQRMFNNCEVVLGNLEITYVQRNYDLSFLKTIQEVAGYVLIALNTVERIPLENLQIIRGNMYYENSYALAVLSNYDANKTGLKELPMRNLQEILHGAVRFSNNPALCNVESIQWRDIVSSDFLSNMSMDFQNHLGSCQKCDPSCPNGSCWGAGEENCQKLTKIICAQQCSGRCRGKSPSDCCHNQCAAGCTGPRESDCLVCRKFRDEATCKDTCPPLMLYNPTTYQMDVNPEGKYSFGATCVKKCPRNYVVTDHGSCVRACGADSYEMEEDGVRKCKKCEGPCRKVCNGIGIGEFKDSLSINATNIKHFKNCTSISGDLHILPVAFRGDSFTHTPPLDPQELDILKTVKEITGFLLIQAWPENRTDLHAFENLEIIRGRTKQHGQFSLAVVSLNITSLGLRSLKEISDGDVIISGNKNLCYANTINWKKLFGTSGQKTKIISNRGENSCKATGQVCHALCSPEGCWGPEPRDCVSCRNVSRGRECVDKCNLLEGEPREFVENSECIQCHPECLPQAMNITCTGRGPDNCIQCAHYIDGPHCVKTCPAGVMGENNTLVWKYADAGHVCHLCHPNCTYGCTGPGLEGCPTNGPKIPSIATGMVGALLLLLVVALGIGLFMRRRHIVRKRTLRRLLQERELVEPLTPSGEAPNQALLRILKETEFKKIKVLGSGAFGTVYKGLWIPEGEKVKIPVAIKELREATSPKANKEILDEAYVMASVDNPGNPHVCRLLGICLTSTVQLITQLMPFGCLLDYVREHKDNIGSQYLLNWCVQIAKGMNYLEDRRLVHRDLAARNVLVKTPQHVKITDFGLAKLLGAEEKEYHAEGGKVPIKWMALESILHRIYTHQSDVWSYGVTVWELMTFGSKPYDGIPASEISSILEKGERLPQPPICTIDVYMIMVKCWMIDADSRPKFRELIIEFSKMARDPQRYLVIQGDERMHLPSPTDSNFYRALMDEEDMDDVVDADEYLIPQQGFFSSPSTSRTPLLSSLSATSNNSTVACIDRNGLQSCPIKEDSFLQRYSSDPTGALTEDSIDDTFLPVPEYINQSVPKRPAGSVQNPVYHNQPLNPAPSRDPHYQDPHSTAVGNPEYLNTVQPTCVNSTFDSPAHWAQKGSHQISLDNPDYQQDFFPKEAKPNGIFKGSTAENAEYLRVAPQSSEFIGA
Method in brief: as §17

[6] = target: T5, EGFR exon 20 FQEA Ins A763_V764 (Ba/F3 cells) (Homo sapiens, UniProt P00533, INS763FQEA); assay: Inhibitor activity on EGFR-dependent cell growth (CellTiter-Glo, 72 h), Ba/F3 EGFR exon 20 FQEA Ins; conditions: read-out: BaF3 FQEA IC50
T5 construct: expressed in transfected cells; host or cells: Ba/F3 (murine pro-B cells), retroviral transduction, puromycin selection, IL3-independent pool
Method in brief: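 Compounds, serially diluted 3-fold over 10 points in DMSO and added at 120 nL per well, act on Ba/F3 EGFR-mutant cells for 72 h. Seeding is 800 (exon 19del, FQEA), 600 (L858R/C797S) or 400 (L858R) cells/well. CTG luminescence is fitted with a four-parameter logistic curve to give IC50.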

[7] = target: T4, EGFR exon 20 NPG Ins D770_N771 (Ba/F3 cells); assay: Inhibitor activity on EGFR phosphorylation (pEGFR AlphaLISA, 2 h), Ba/F3 EGFR exon 20 NPG Ins
Method in brief: (§18)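 Ba/F3 cells made IL3-independent by retroviral EGFR mutant expression (puromycin-selected, pooled) and CUTO14 cells were seeded at 50K or 12.5K cells/well, respectively. They were treated 2 h with a 3-fold, 10-point compound series, lysed, and phospho-EGFR was read by AlphaLISA to give IC50.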

[8] = target: T6, EGFR exon 20 SVD Ins D770_N771 (Ba/F3 cells) (Homo sapiens, UniProt P00533, INS770SVD); assay: Inhibitor activity on EGFR-dependent cell growth (CellTiter-Glo, 72 h), Ba/F3 EGFR exon 20 SVD Ins; conditions: read-out: BaF3 SVD IC50
T6 construct: expressed in transfected cells; host or cells: Ba/F3 (murine pro-B cells), retroviral transduction, puromycin selection, IL3-independent pool
T6 sequence (P00533 with tags, fused parts or gaps INS770SVD): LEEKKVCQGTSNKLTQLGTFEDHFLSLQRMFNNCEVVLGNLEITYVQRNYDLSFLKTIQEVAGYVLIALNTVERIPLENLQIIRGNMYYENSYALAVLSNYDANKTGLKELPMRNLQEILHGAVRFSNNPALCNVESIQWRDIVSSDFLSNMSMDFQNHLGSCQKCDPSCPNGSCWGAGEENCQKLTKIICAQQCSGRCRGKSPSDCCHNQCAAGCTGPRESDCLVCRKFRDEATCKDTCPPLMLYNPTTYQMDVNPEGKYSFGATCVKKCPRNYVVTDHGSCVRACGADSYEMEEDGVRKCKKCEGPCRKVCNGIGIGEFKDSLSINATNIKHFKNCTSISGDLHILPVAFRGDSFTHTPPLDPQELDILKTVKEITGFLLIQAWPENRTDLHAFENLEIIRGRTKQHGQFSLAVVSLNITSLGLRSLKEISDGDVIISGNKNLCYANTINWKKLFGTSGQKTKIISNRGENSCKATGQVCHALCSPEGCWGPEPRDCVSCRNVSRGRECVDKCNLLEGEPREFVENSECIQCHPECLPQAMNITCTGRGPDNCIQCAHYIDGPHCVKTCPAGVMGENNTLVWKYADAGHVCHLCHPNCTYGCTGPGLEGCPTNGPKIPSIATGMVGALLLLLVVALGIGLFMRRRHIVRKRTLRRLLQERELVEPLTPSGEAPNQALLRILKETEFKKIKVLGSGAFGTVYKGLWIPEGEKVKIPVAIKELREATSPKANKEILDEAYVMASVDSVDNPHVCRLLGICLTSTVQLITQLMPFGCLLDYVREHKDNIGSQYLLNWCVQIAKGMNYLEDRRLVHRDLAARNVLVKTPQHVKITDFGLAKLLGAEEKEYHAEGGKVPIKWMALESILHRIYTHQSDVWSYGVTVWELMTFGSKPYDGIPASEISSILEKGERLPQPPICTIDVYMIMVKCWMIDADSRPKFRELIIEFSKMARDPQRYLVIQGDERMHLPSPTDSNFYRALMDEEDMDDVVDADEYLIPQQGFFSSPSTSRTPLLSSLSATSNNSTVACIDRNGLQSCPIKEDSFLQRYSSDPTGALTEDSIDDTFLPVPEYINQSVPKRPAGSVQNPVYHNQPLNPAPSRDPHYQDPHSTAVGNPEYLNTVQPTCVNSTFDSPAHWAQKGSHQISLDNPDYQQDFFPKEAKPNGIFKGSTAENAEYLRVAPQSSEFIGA
Method in brief: as §17

[9] = target: T2, EGFR exon 20 ASV Ins V769_D770 (Ba/F3 cells); assay: Inhibitor activity on EGFR phosphorylation (pEGFR AlphaLISA, 2 h), Ba/F3 EGFR exon 20 ASV Ins; conditions: EGFR phosphorylation, AlphaLISA, 2 hours; read-out: ASV IC50 (pEGFR)
Method in brief: as §18

Row | SMILES | pIC50 [1] | pIC50 [2] | pIC50 [3] | pIC50 [4] | pIC50 [5] | pIC50 [6] | pIC50 [7] | pIC50 [8] | pIC50 [9]
2 | COc1c(Cl)cccc1Nc1c(-c2ccnc(C)n2)[nH]c2c1C(=O)NC[C@H]2CC1COCCO1 (stereo in doubt) [Compound 573, (7R)-3-[(3-chloro-2-methoxyphenyl)amino]-7-[(2R)-1,4-dioxan-2-ylmethyl]-2-(2-methylpyrimidin-4-yl)-1H,5H,6H,7H-pyrrolo[3,2-c]pyridin-4-one] | > 7.00 | – | > 7.00 | 6.00 to 7.00 | > 7.00 | – | > 7.00 | – | –
3 | COc1c(F)cccc1Nc1c(-c2ccnc3ccoc23)[nH]c2c1C(=O)NCC2 [Compound 553, 3-[(3-fluoro-2-methoxyphenyl)amino]-2-{furo[3,2-b]pyridin-7-yl}-1H,5H,6H,7H-pyrrolo[3,2-c]pyridin-4-one] | > 7.00 | > 7.00 | > 7.00 | 6.00 to 7.00 | – | > 7.00 | – | > 7.00 | –
4 | COc1c(Cl)cccc1Nc1c(-c2ccnc3ccc(OC4CC(F)(F)C4)nc23)[nH]c2c1C(=O)NCC2 [Compound 766, 3-[(3-chloro-2-methoxyphenyl)amino]-2-[6-(3,3-difluorocyclobutoxy)-1,5-naphthyridin-4-yl]-1H,5H,6H,7H-pyrrolo[3,2-c] pyridin-4-one] | > 7.00 | > 7.00 | > 7.00 | 6.00 to 7.00 | > 7.00 | > 7.00 | – | > 7.00 | –
5 | Cc1ccc2nccc(-c3[nH]c4c(c3Nc3cccc(F)c3C)C(=O)NCC4)c2n1 [Compound 810, 3-[(3-fluoro-2-methylphenyl)amino]-2-(6-methyl-1,5-naphthyridin-4-yl)-1H,5H,6H,7H-pyrrolo[3,2-c]pyridin-4-one] | > 7.00 | > 7.00 | > 7.00 | 6.00 to 7.00 | – | > 7.00 | – | > 7.00 | –
6 | COc1c(Cl)cccc1Nc1c(-c2ccnc3[nH]cnc23)[nH]c2c1C(=O)NCC2 [compound 290] | > 7.00 | > 7.00 | > 7.00 | 6.00 to 7.00 | 6.00 to 7.00 | > 7.00 | > 7.00 | > 7.00 | > 7.00
7 | COCCOc1ccc2nccc(-c3[nH]c4c(c3Nc3cccc(Cl)c3OC)C(=O)NCC4)c2n1 [compound 678, 3-[(3-chloro-2-methoxyphenyl)amino]-2-[6-(2-methoxyethoxy)-1,5-naphthyridin-4-yl]-1H,5H,6H,7H-pyrrolo[3,2-c]pyridin-4-one] | – | > 7.00 | – | > 7.00 | > 7.00 | > 7.00 | > 7.00 | > 7.00 | > 7.00
8 | COCc1ccc2nccc(-c3[nH]c4c(c3Nc3cccc(Cl)c3OC)C(=O)NCC4)c2n1 [compound 679, 3-[(3-chloro-2-methoxyphenyl)amino]-2-[6-(methoxymethyl)-1,5-naphthyridin-4-yl]-1H,5H,6H,7H-pyrrolo[3,2-c]pyridin-4-one] | > 7.00 | > 7.00 | > 7.00 | > 7.00 | > 7.00 | > 7.00 | – | > 7.00 | –
9 | CCO[C@@H](C)c1ccc2nccc(-c3[nH]c4c(c3Nc3cccc(Cl)c3OC)C(=O)NCC4)c2n1 [compound 754, 3-[(3-chloro-2-methoxyphenyl)amino]-2-[6-[(1S)-1-ethoxyethyl]-1,5-naphthyridin-4-yl]-1H,5H,6H,7H-pyrrolo[3,2-c]pyridin-4-one; trifluoroacetic acid] | > 7.00 | > 7.00 | > 7.00 | > 7.00 | > 7.00 | > 7.00 | – | > 7.00 | –
10 | COCC[C@@H]1CNC(=O)c2c1[nH]c(-c1ccncc1F)c2Nc1cccc(F)c1C [compound 823] | > 7.00 | > 7.00 | > 7.00 | > 7.00 | – | > 7.00 | – | > 7.00 | –

Results, then the molecule that gave them:

Row | pIC50 [1] | pIC50 [2] | pIC50 [3] | pIC50 [4] | pIC50 [5] | pIC50 [6] | pIC50 [7] | pIC50 [8] | pIC50 [9] | SMILES
11 | > 7.00 | > 7.00 | > 7.00 | 6.00 to 7.00 | > 7.00 | > 7.00 | – | > 7.00 | – | CC[C@@H]1CNC(=O)c2c1[nH]c(-c1ccnc(N)n1)c2Nc1cccc(Cl)c1OC [189a]
12 | > 7.00 | > 7.00 | > 7.00 | > 7.00 | > 7.00 | > 7.00 | – | > 7.00 | – | COc1ccc2nccc(-c3[nH]c4c(c3Nc3cccc(Cl)c3OC)C(=O)NC[C@H]4C)c2n1 [310a]
13 | > 7.00 | 6.00 to 7.00 | > 7.00 | < 6.00 | 6.00 to 7.00 | – | – | 6.00 to 7.00 | – | COCC[C@@H]1CNC(=O)c2c1[nH]c(-c1ccnc(C)n1)c2Nc1cccc(F)c1OC [453a]
14 | > 7.00 | > 7.00 | > 7.00 | 6.00 to 7.00 | > 7.00 | 6.00 to 7.00 | > 7.00 | > 7.00 | – | COc1c(F)cccc1Nc1c(-c2ccncc2F)[nH]c2c1C(=O)NC[C@H]2C[C@@H]1CCO1 [Compound 422a, (7R)-3-[(3-fluoro-2-methoxyphenyl)amino]-2-(3-fluoropyridin-4-yl)-7-[(2R)-oxetan-2-ylmethyl]-1H,5H,6H,7H-pyrrolo[3,2-c]pyridin-4-one]
